Laboratory results from patent publication US20050059645A1, “Methods for the treatment of male and female sexual dysfunction” (priority 2003, published 2005).
Like-named read-outs stand apart in the source and are kept apart here.

Tests used:
[1] = tested on: ovariectomized female rats; experiment: Lordosis behavior test (lordosis quotient) in ovariectomized female rats; format: in vivo, rat
Description: Thus, lordosis was selected as an indicator of restoration of female sexual function in ovariectomized female rats and an appropriate indicator for alleviating symptoms of female sexual dysfunction.
Adult female Sprague Dawley rats (220-250 g) from Charles River Hungary Ltd., Godollo, Hungary, were used. Animals were kept in community cages (4 animals/cage) in a climate-controlled room (23±2° C., 50-60% humidity), with a 14 hour light, 10 hour dark cycle of artificial lighting, using reversed light/dark cycle. Food and water were available ad libitum.
After a minimum five-day acclimatization period, animals were ovariectomized under ether anesthesia, then were left to recover for 3 weeks before testing (reconvalescence). All animals were treated in accordance with the guidelines of the European Communities Council Directive (86/609/EEC) and studies were permitted by the Institutional Animal Care Commission.
Estradiol benzoate and progesterone were obtained from Sigma Chemical Co. Inc., Budapest, Hungary. […] E2-CDS as a 3% complex with HPβCD (E2-CDS-CD) was dissolved in distilled water and diluted with 27% HPβCD solution. E2-CDS-CD was synthesized by Alchem Laboratories Corporation, Alachua, Fla., US.
(§1) After recovery from surgery, ovariectomized female rats were divided into four groups and treated once a day for five days intravenously, via a bolus injection through the tail vein, as follows: (1) control, 27% HPβCD solution; (2) 0.003 mg/kg E2-CDS dissolved in 27% HPβCD solution; (3) 0.01 mg/kg E2-CDS dissolved in 27% HPβCD solution; and (4) 0.03 mg/kg E2-CDS dissolved in 27% HPβCD solution. A minimal number of ovariectomized (8 to 12) females were used per group. Intravenous treatments either with E2-CDS or HPβCD (controls) were carried out daily for 5 days beginning 2 days prior to the first day of behavior observations, in a volume of 0.05 ml/100 g body weight.
The behavior test was conducted in a plexiglass observation cage during the dark cycle. During behavioral observations, only a dim red light was on.
An experienced and active male rat was placed in the arena 5 minutes prior to the female. […] The lordosis quotient (LQ) expresses the estrogen effect on sexual receptivity and was calculated as follows: LQ=100×number of lordoses/10 mounts The observation of the sexual behavior of each female was carried out, in the case of E2-CDS, every day for 22 days; in the case of EB, investigations were carried out every day for 10 days. […] Citrated blood samples were taken by retro-orbital sinus puncture under light ether anesthesia. The samples were stored at 4° C. for one hour, then centrifuged at 1000 g for 10 minutes. Plasma was separated and stored at −80° C. until assayed. Plasma LH concentrations from individual samples were measured by double antibody radioimmunoassay kits obtained from Amersham Pharmacia Biotech, Rome, Italy. […] The limit of detection was 15 pg/ml.
Behavioral changes were analyzed using the Mann-Whitney U test (Siegel, Nonparametric Statistics for the Behavioral Sciences, New York; McGraw-Hill Book Company, Inc., 1956). The Fisher exact test was used for percentage comparisons (Zar, Biostatistical Analysis, Prentice Hall, Inc., Englewood Cliffs, N.J., 1974). Serum LH data were analyzed for each time and treatment group by analysis of variance (ANOVA) followed by Bonferroni posthoc test.

LH = experiment: Plasma LH by radioimmunoassay in ovariectomized female rats; format: in vivo, rat; conditions: 0.003, 0.01 and 0.03 mg/kg i.v. daily for 5 days
Description: as §1
An experienced and active male rat was placed in the arena 5 minutes prior to the female. […] The lordosis quotient (LQ) expresses the estrogen effect on sexual receptivity and was calculated as follows: LQ=100×number of lordoses/10 mounts The observation of the sexual behavior of each female was carried out, in the case of E2-CDS, every day for 22 days; in the case of EB, investigations were carried out every day for 10 days. […] Citrated blood samples were taken by retro-orbital sinus puncture under light ether anesthesia. […] Plasma LH concentrations from individual samples were measured by double antibody radioimmunoassay kits obtained from Amersham Pharmacia Biotech, Rome, Italy. […]

castrated male rats = conditions: cited from earlier work
[2] = estradiol itself, postmenopausal volunteer; cited from earlier work
[3] = cited from earlier work
[4] = 0.01 mg/kg i.v. once a day for 5 days
[5] = 0.03 mg/kg i.v. once a day for 5 days

Q: Which “lordosis quotient, effect” value ([1]; 0.003 mg/kg i.v. once a day for 5 days) does the source give for `C[C@]12CC[C@@H]3c4ccc(OC(=O)c5ccccc5)cc4CC[C@H]3[C@@H]1CC[C@@H]2O` [estradiol benzoate] here?
A: slightly enhanced the lordosis quotient, but these effects were not statistically significant

Q: And the “LQ increase compared to E2-CDS” value [1, 4]?
A: about 3 times less

Q: What about the “lordosis quotient LQ, effect” value [1, 4] of the same compound?
A: slightly increased the LQ from day 3 to day 10

Q: And the “statistical significance of LQ increase” value [1, 4]?
A: not statistically significant

Q: What about the “LQ value relative to E2-CDS” value [1, 5] of the same compound?
A: about three times lower

Q: And the “duration of LQ enhancement” value [1, 5]?
A: from day 3 to day 8

Q: And the “lordosis quotient LQ, effect” value [1, 5]?
A: significantly enhanced

Q: And the “plasma LH levels, effect” value (LH)?
A: none of the tested dosages of estradiol benzoate gave statistically significant LH suppression

Q: And the masculine sexual behavior (castrated male rats; 10 μg/day systemically for 9 to 11 days (Pfaff 1970))?
A: increased mounting, intromissions and ano-genital sniffing and reduced mounting latency

Q: And the ejaculations (castrated male rats; 100 μg/day for 24 to 28 days (Sodersten 1973))?
A: less affected by estradiol benzoate then by testosterone propionate

Q: What about the mounts and intromissions (castrated male rats; 100 μg/day for 24 to 28 days, rats castrated 6 weeks previously (Sodersten 1973)) of the same compound?
A: equivalent to those observed following similar treatment with testosterone propionate

Q: With `C[C@]12CC[C@@H]3c4ccc(O)cc4CC[C@H]3[C@@H]1CC[C@@H]2O` [estradiol] as the compound, how does the “initial serum estradiol level” value [2] read?
A: too high to calculate with the standard curve

Q: What does the source list for `C[C@]12CC[C@H]3[C@@H](CCC4=CC(=O)CC[C@@]43C)[C@@H]1CC[C@@H]2O` [testosterone]?
A: estradiol formed (of recovered steroids) ([3]; amygdala (Michael 1986)): 64%; estradiol formed (of recovered steroids) ([3]; hypothalamus (Michael 1986)): 61%; radioactivity reported to be estradiol ([3]; hypothalamus, preoptic area and amygdala (Bonsall 1983)): ≥ 50%; estradiol formed (of recovered steroids) ([3]; preoptic area (Michael 1986)): 43%
